Columns and labels:
[1] = system: human ES cell line KhES3; details: added in Stage 3 on day 2 or after for 1-2 days
Experimental: In the figure, arrows indicate time periods when ALK5 inhibitor II was added to the medium. […] The expressions were measured by a flow cytometer. In the figure, numbers indicate the ratio of PDX1^+ and NKX6.1^+ cells contained in the culture.
The cells obtained in Stage 2 were dissociated into single cells with trypsin and seeded on a Low Attachment 96-well plate (Lipidure Coat, NOF) at a density of 3.0×10^3 to 3.0×10^4 cells/well. Improved MEM Zinc Option (15×10^4 cells/ml) containing 100 ng/ml of KGF, 100 ng/ml of Noggin, 50 ng/ml of EGF (R&D systems), 10 μM of Y-27632 and 1% B-27 was added to the plate, and the cells were further cultured for 4 to 20 days. During this time period, the medium was exchanged with fresh medium every 4 days. As a control, cells obtained in Stage 2 were dissociated into single cells with trypsin and seeded on a Matrigel coated 24 well plate (Greiner) at a density of 6.0×10^4 to 4.8×10^5 cells/cm^2 and cultured under adhesive conditions in the same medium for four days. […]
The cells obtained at four days after the start of Stage (S3d4) were treated with BD Cytofix/Cytoperm™ Kit, stained with an anti-PDX1 antibody (R&D systems) and an anti-NKX6.1 antibody (University of Iowa), and the ratio of PDX1^+ cells as well as the ratio of PDX1^+NKX6.1^+ cells were determined by using a flow cytometer.

[2] = system: iPS cell line 585A1; assay: Modified adherent culture protocol, additives during Stage 3, flow cytometer or image analyzer; assay type: cell-based, human; details: for ratio of PDX1^+NKX6.1^+ cells / ratio of NKX6.1^+ cells: compound in Stage 3 medium, modified protocol, 4 days
Experimental: Cells of iPS cell line 585A1 were seeded on a Matrigel coated 24 well plate at a density of 2.0×10^5 cells/well, and the cells were cultured in RPMI 1640 Medium (Nacalai Tesque, Inc.) supplemented with 2% B-27 (Life Technologies), to which 100 ng/ml of activin A (R&D systems), 3 μM of CHIR99021 (Axon Medchem) and 10 μM of Y-27632 (Wako Pure Chemical Industries, Ltd.) were added, for one day. The medium was exchanged with RPMI 1640 Medium containing 100 ng/ml of activin A, 1 μM of CHIR99021 and 2% B-27 (Life Technologies), and the cells were cultured for two days. In addition, the medium was exchanged with RPMI 1640 Medium containing 100 ng/ml of activin A and 2% B-27 (Life Technologies), and the cells were cultured for one day.
The medium was exchanged with Improved MEM Zinc Option (Invitrogen) containing 50 ng/ml of KGF (R&D systems) and 1% B-27 (Life Technologies), and the cells were cultured for 3 or 4 days. Subsequently, the medium was exchanged with Improved MEM Zinc Option containing 50 ng/ml of KGF, 100 ng/ml of Noggin (Peprotech), 10 nM of TTNPB (Santa Cruz Biotechnology), 0.5 μM of 3-Keto-N-aminoethyl-N′-aminocaproyldihydrocinnamoyl Cyclopamine (KAAD-cyclopamine or K-CYC) (Toronto Research Chemicals) and 1% B-27 and the cells were cultured for 2 or 3 days.

[3] = system: iPS cell line 585A1; assay: Adherent culture protocol, Y-27632 during Stage 3, flow cytometry of PDX1/NKX6.1; assay type: cell-based, human; details: four days
Experimental: Cells of iPS cell line 585A1 were seeded on a Matrigel coated 24 well plate at a density of 2.0×10^5 cells/well, and cultured in RPMI 1640 Medium (Nacalai Tesque, Inc.) supplemented with 2% B-27 (Life Technologies), 100 ng/ml of activin A (R&D systems), 3 μM of CHIR99021 (Axon Medchem) and 10 μM of Y-27632 (Wako Pure Chemical Industries, Ltd.) for one day. The medium was exchanged with RPMI 1640 Medium containing 100 ng/ml of activin A, 1 μM of CHIR99021 and 2% B-27 (Life Technologies), and the cells were cultured for two days. The medium was then exchanged with RPMI 1640 Medium containing 100 ng/ml of activin A and 2% B-27 (Life Technologies), and the cells were cultured for one day.
The medium of the culture obtained in Stage 1 was exchanged with Improved MEM Zinc Option (Invitrogen) containing 50 ng/ml of KGF (R&D systems) and 1% B-27 (Life Technologies) and the cells were cultured for three days. Subsequently, the medium was exchanged with Improved MEM Zinc Option containing 50 ng/ml of KGF, 100 ng/ml of Noggin (Peprotech), 10 nM of TTNPB (Santa Cruz Biotechnology), 0.5 μM of 3-Keto-N-aminoethyl-N′-aminocaproyldihydrocinnamoyl Cyclopamine (KAAD-cyclopamine or K-CYC) (Toronto Research Chemicals) and 1% B-27, and the cells were cultured for three days.

Cc1cccc(-c2n[nH]cc2-c2ccc3ncccc3n2)n1 [ALK5 inhibitor II, 2-[3-[6-methylpyridin-2-yl]-1H-pyrazol-4-yl]-1,5-naphthyridine]
ratio of PDX1^+NKX6.1^+ cells [1]: increased

Cc1ccc2c(c1)C(=O)C1(O)CCN(c3ccccc3)C1=N2 (centres unmarked) [Blebbistatin]
concentration from which the ratio of PDX1^+NKX6.1^+ cells increased ([2]; Stage 3, modified protocol): 5 µM | concentration up to which the effect on the ratio of PDX1^+NKX6.1^+ cells was high ([2]; Stage 3, modified protocol): up to 20 μM | ratio of PDX1^+NKX6.1^+ cells [2]: increased

O=S(=O)(c1cccc2cnccc12)N1CCCNCC1 [Fasudil]
concentration at which the effect on the ratio of PDX1^+NKX6.1^+ cells was highest ([2]; Stage 3, modified protocol): 50 µM | ratio of PDX1^+NKX6.1^+ cells [2]: increased in a concentration-dependent manner

CCn1c(-c2nonc2N)nc2cnc(Oc3cccc(NC(=O)c4ccc(OCCN5CCOCC5)cc4)c3)cc21 [GSK269962]
concentration at which the effect on the ratio of NKX6.1^+ cells was highest ([2]; Stage 3, modified protocol): 1 µM | ratio of NKX6.1^+ cells [2]: increased in a concentration-dependent manner

Cc1cncc2cccc(S(=O)(=O)N3CCCNC[C@@H]3C)c12 [H-1152]
concentration at which the effect on the ratio of NKX6.1^+ cells was highest ([2]; Stage 3, modified protocol): 50 µM | ratio of NKX6.1^+ cells [2]: increased in a concentration-dependent manner

CN(C)CCOc1cc(-c2cn[nH]c2)ccc1NC(=O)C1COc2ccccc2O1 (centres unmarked) [SR3677]
concentration at which the effect on the ratio of NKX6.1^+ cells was highest ([2]; Stage 3, modified protocol): 5 µM | ratio of NKX6.1^+ cells [2]: increased in a concentration-dependent manner

C[C@@H](N)[C@H]1CC[C@H](C(=O)Nc2ccncc2)CC1 [Y-27632]
concentration at which the effect on the ratio of PDX1^+NKX6.1^+ cells was highest ([3]; Stage 3, adherent culture): 100 µM | ratio of PDX1^+NKX6.1^+ cells ([3]; compound in Stage 3 medium, adherent culture): increased in a concentration-dependent manner

Reference: patent US10472610B2, “Method for generating pancreatic bud cells and therapeutic agent for pancreatic disease containing pancreatic bud cells” (Kyoto University, priority 2014, dated 2019)
